Earlier results in patent US20060172368A1, “CGT1 as an antifungal target” (priority 2002, published 2006).

Conditions: mice, DOX 2 mg/ml in 5% sucrose as drinking water, approx. 5 ml per day

## C[C@H]1c2cccc(O)c2C(=O)C2=C(O)[C@]3(O)C(=O)C(C(N)=O)=C(O)[C@@H](N(C)C)[C@@H]3[C@@H](O)[C@@H]21 [doxycycline]
  concentration of DOX in serum: more than 2 mg/ml of serum
